We go through 33 molecules from ChEMBL document CHEMBL4270583, “Synthesis and biological evaluation of dihydroquinoline carboxamide derivatives as anti-tubercular agents” (Eur J Med Chem, 2018).

For data set [1], the system named is Mycobacterium tuberculosis. The data set can be described thus: Antitubercular activity against Mycobacterium tuberculosis H37Rv after 1 week by microplate alamar blue assay. In kind it is functional. Conditions: 168 h.
The nature of data set [2]: Cytotoxicity against mouse RAW264.7 cells assessed as growth inhibition after 48 hrs by MTT assay. In kind it is cell-based.
A short description of data set [3]: Cytotoxicity against mouse RAW264.7 cells assessed as growth inhibition at 25 ug/ml after 48 hrs by MTT assay relative to control. It counts as cell-based. The conditions noted are these: read-out: GI.

In brackets after ≈: the same amount, converted by molar mass. Some results are limits rather than exact numbers.

`O=C(NCCN1CCCCC1)c1c(-c2ccccc2)c2cc(Cl)ccc2[nH]c1=O` registered a minimal inhibitory concentration (MIC) in data set [1] of 25 µg/mL (≈ 61 µM).

In data set [1], `O=C(Nc1ccc(F)cc1)c1c(-c2ccccc2)c2ccccc2[nH]c1=O` displayed an MIC of 25 µg/mL (≈ 69.8 µM).

In data set [1], `CS(=O)(=O)c1ccc(NC(=O)c2c(-c3ccccc3)c3ccccc3n(Cc3cccc(Cl)c3)c2=O)cc1` yielded an MIC of 12.5 µg/mL (≈ 23 µM).

With `Cc1ccc(NC(=O)c2c(-c3ccccc3)c3cc(Cl)ccc3n(Cc3cc(F)cc(F)c3)c2=O)c(C)c1`, the minimum inhibitory concentration (MIC) in data set [1] was 12.5 µg/mL (≈ 23.6 µM).

With `COC(=O)C(Cc1c[nH]c2ccccc12)NC(=O)c1c(-c2ccccc2)c2cc(Cl)ccc2[nH]c1=O` (stereo not given), in data set [2], the GI50 at 48 h came out at 104 µg/mL (≈ 209 µM). Moreover, in data set [3], the inhibition at 48 h, 25 ug/ml came to 21.5%. For the same molecule, the MIC in data set [1] was 6.25 µg/mL (≈ 12.5 µM).

In turn, `O=C(Nc1ccccc1F)c1c(-c2ccccc2)c2cc(Cl)ccc2n(Cc2ccc(F)cc2)c1=O` had an MIC in data set [1] of more than 25 µg/mL.

Consider `Cc1cccc(Cn2c(=O)c(C(=O)Nc3ccc(Br)cc3)c(-c3ccccc3)c3cc(Cl)ccc32)c1`, for which, in data set [1], the MIC is more than 25 µg/mL.

Consider `O=C(Nc1ccc(N2CCOCC2)cc1)c1c(-c2ccccc2)c2cc(Cl)ccc2[nH]c1=O`, for which the GI50 at 48 h in data set [2] came out at 96.4 µg/mL (≈ 210 µM). In data set [3], the inhibition at 48 h, 25 ug/ml was determined as 18.6%. This molecule registered an MIC in data set [1] of 6.25 µg/mL (≈ 13.6 µM).

The molecule `Cc1cccc(Cn2c(=O)c(C(=O)Nc3ccc(C(F)(F)F)cc3)c(-c3ccccc3)c3cc(Cl)ccc32)c1` gave an MIC in data set [1] of more than 25 µg/mL.

In data set [1], `O=C(NCCN1CCOCC1)c1c(-c2ccccc2)c2cc(Cl)ccc2[nH]c1=O` showed an MIC of 25 µg/mL (≈ 60.7 µM).

Turning to `O=C(Nc1ccc(F)cc1)c1c(-c2ccccc2)c2ccccc2n(Cc2ccccc2)c1=O`, the MIC in data set [1] is more than 25 µg/mL.

On to `O=C(Nc1ccc(C(F)(F)F)cc1)c1c(-c2ccccc2)c2ccccc2n(Cc2ccccc2)c1=O`, for which, in data set [1], it took 25 µg/mL (≈ 50.2 µM) to inhibit growth (MIC).

In turn, `O=C(NCCc1ccc(O)cc1)c1c(-c2ccccc2)c2cc(Cl)ccc2[nH]c1=O` returned an MIC in data set [1] of 25 µg/mL (≈ 59.7 µM).

For the molecule `CSc1ccc(NC(=O)c2c(-c3ccccc3)c3cc(Cl)ccc3n(Cc3cccc(C)c3)c2=O)cc1`, the lowest concentration to inhibit growth in data set [1] (MIC) was 12.5 µg/mL (≈ 23.8 µM).

In data set [1], `CSc1ccc(NC(=O)c2c(-c3ccccc3)c3ccccc3n(Cc3cccc(Cl)c3)c2=O)cc1` came in with an MIC of more than 25 µg/mL.

As for `O=C(NC12CC3CC(CC(C3)C1)C2)c1c(-c2ccccc2)c2ccccc2[nH]c1=O`, the GI50 at 48 h in data set [2] amounted to 87.6 µg/mL (≈ 220 µM). In data set [3], the inhibition at 48 h, 25 ug/ml was 16.2%. The molecule also came in with an MIC in data set [1] of 3.12 µg/mL (≈ 7.84 µM).

For the molecule `O=C(Nc1ccc(CO)cc1)c1c(-c2ccccc2)c2cc(Cl)ccc2[nH]c1=O`, the MIC in data set [1] is more than 25 µg/mL.

`Cc1cc(C)c(NC(=O)c2c(-c3ccccc3)c3cc(Cl)ccc3n(Cc3cccc(F)c3)c2=O)c(C)c1`: the GI50 at 48 h in data set [2] was 93.5 µg/mL (≈ 178 µM). In data set [3], the inhibition at 48 h, 25 ug/ml is 22.4%. Moreover, inhibition of growth in data set [1] (MIC) required 0.78 µg/mL (≈ 1.49 µM).

Take `Cc1cccc(Cn2c(=O)c(C(=O)Nc3ccc(OC(F)(F)F)cc3)c(-c3ccccc3)c3cc(Cl)ccc32)c1`: the MIC in data set [1] was more than 25 µg/mL.

For the molecule `O=C(Nc1ccc2c(c1)OCCO2)c1c(-c2ccccc2)c2ccccc2[nH]c1=O`, in data set [1], inhibition of growth (MIC) required 25 µg/mL (≈ 62.7 µM).

For `O=C(NCCc1c[nH]c2ccccc12)c1c(-c2ccccc2)c2ccccc2[nH]c1=O`, the MIC in data set [1] came out at 12.5 µg/mL (≈ 30.7 µM).

Turning to `Cc1cccc(Cn2c(=O)c(C(=O)Nc3ccc(F)cc3)c(-c3ccccc3)c3cc(Cl)ccc32)c1`, in data set [1], the MIC was more than 25 µg/mL.

Consider `O=C(Nc1ccc(OC(F)(F)F)cc1)c1c(-c2ccccc2)c2ccccc2n(Cc2ccccc2)c1=O`, for which the MIC in data set [1] is more than 25 µg/mL.

`O=C(Nc1cccc(F)c1)c1c(-c2ccccc2)c2cc(Cl)ccc2n(Cc2ccc(F)cc2)c1=O` had an MIC in data set [1] of more than 25 µg/mL.

Regarding `O=C(Nc1ccc(Cl)cc1)c1c(-c2ccccc2)c2cc(Cl)ccc2n(Cc2cccc(F)c2)c1=O`, in data set [2], the GI50 at 48 h was found to be 86.8 µg/mL (≈ 168 µM). Also, the inhibition at 48 h, 25 ug/ml in data set [3] stood at 24.7%. In addition, the MIC in data set [1] turned out to be 0.39 µg/mL (≈ 0.754 µM).

Molecule `O=C(NCCc1ccccc1)c1c(-c2ccccc2)c2cc(Cl)ccc2[nH]c1=O` displayed an MIC in data set [1] of 25 µg/mL (≈ 62.1 µM).

For the molecule `COC(=O)C(Cc1ccc(O)cc1)NC(=O)c1c(-c2ccccc2)c2cc(Cl)ccc2[nH]c1=O` (stereo not given), the MIC in data set [1] amounted to 12.5 µg/mL (≈ 26.2 µM).

`O=C(Nc1ccc(Br)cc1)c1c(-c2ccccc2)c2ccccc2n(Cc2ccccc2)c1=O`: the GI50 at 48 h in data set [2] was 113 µg/mL (≈ 222 µM). The inhibition at 48 h, 25 ug/ml in data set [3] was 14.6%. This molecule registered an MIC in data set [1] of 6.25 µg/mL (≈ 12.3 µM).

Take `O=C(NCCCn1ccnc1)c1c(-c2ccccc2)c2cc(Cl)ccc2[nH]c1=O`: the MIC in data set [1] was found to be 25 µg/mL (≈ 61.4 µM).

`Cc1cccc(Cn2c(=O)c(C(=O)Nc3ccc(Cl)cc3)c(-c3ccccc3)c3cc(Cl)ccc32)c1` yielded an MIC in data set [1] of 25 µg/mL (≈ 48.7 µM).

Molecule `CC[C@@H](CO)NCCN[C@@H](CC)CO` [ETHAMBUTOL] registered an MIC in data set [1] of 1.56 µg/mL (≈ 7.64 µM).

In data set [1], `NNC(=O)c1ccncc1` [ISONIAZID] gave an MIC of 0.1 µg/mL (≈ 0.729 µM).

In the case of `CO[C@H]1/C=C/O[C@@]2(C)Oc3c(C)c(O)c4c(O)c(c(/C=N/N5CCN(C)CC5)c(O)c4c3C2=O)NC(=O)/C(C)=C\C=C\[C@H](C)[C@H](O)[C@@H](C)[C@@H](O)[C@@H](C)[C@H](OC(C)=O)[C@@H]1C` [RIFAMPIN], the lowest concentration to inhibit growth in data set [1] (MIC) was 0.2 µg/mL (≈ 0.243 µM).
